Literature values in US20110104282A1, “New Therapy of Treatment of the Irritable Bowel Syndrome” (Karolinska Institutet Innovations AB, priority 2008, published 2011).

Conditions: on occasion

N[C@@H](Cc1c[nH]c2ccccc12)C(=O)O [tryptophan]
adverse side effects of high doses: intestinal discomfort and nausea
